Test results as given in patent publication US8017557B2, “Benzodioxole derivatives as modulators of proteolytic activity in plants” (Endura S.p.A., priority 2002, dated 2011).

Columns and labels:
[1] = tested on: peptidase activity in cotton plants; assay: Photometric assay of peptidase activity with DL-BAPA as substrate in cotton plants; type: in vivo, cotton (cv. Sicala V2i); conditions: for Peptidase activity, PBO treated cv. V2i Bt: DL-BAPA substrate
Method: The photometric assay was carried out following the DL-BAPA hydrolysis at 410 nm. One peptidase unit (U) was defined as the amount of the enzyme, which produces one unit of absorbance variation at 410 nm/minute at pH 8.2 and 30° C. For each extract, the amount of soluble proteins in mg was determined by the Biuret method and the enzymatic activity was then expressed as specific activity i.e. Units/mg soluble proteins.
Each analysis was performed in duplicate or in triplicate and the standard deviation for each point is also indicated. Abscissa: time (days); ordinate: trypsin units/mg soluble protein.
The samples were collected at different development stages of plants, which were: […], 60 and 85 days after sowing. These samples were also analysed for determining the Bt content (as described in example 4). To this aim, the enzymatic activity was tested on crude freeze dried leaf extracts with two different assays: the Radial Diffusion Assay (RDA), in which a protein, such as the bovine gelatine, was used as a substrate to test the endopeptidase activity, and a photometric assay described in the next example, in which DL-BAPA was used as a substrate, to determine a general peptidase activity.
A powder aliquot, which represents each step of plant growth, of the treated and controls samples was extracted in two steps. The powder sample was extracted with buffer 0.1 M Tris-HCl pH 7.7 (1:20 w/v) using an Ultraturrax blender at 24,000×RPM for 2 min in a ice bath to avoid overheating. […] The clear supernatant was collected and filtrated with Whatman paper no 4. The pellet was further extracted with the same procedure, with the exception that in this case the extraction ratio was 1:10 (w/v). Finally, the supernatants of the two extractions processes were joined and then concentrated 4-5 times by centrifugation at 3,000×g at 15° C. for 2 hours, using suitable concentrators (Amicon Inc. Beverly, Mass.—USA), fitted with a membrane of 10 κD cut off.
For each extract, the amount of soluble proteins was determined by the Biuret method and the enzymatic activity was then expressed as specific activity i.e. Units/mg soluble proteins.
The photometric assay was carried out as described in Erlanger, B. F. et al. Arch. Biochem., 1961, 95: 271-278. In the assay is measured the absorbance variation due to DL-BAPA hydrolysis at 410 nm. The assay was performed mixing directly in the cuvette 20 μl of cotton crude extract with 980 μl of DL-BAPA in buffer 0.1 M Tris-HCl pH 8.2. One peptidase unit was defined as the amount of the enzyme which produces one unit of absorbance variation (410 nm) per minute at pH 8.2 and 30° C.
Each series of analysis was performed in duplicate or triplicate. […] In this figure is shown a maximum of peptidase activity around 60 days of development. […] A statistically significant inhibition is observed during the most part of the plant growing cycle. Finally, in table 7 is shown the specific activities of peptidase of treated and untreated Sicala V2i cotton samples. In this table it is also reported the activity differences in percentage between the treated and untreated samples.

[2] = tested on: ficin; conditions: Wo 25, HEPES pH 7.1, 30° C.
Method: Reverse micelles assay of ISO-AOT 50 mM (AOT: twin aerosol (2-ethylhexylsodiumsulfosuccinate in isooctane (ISO)); Wo (H2O/AOT)=25
The assays were carried out in the reverse-micelles assay dispersed in organic solvent, described by Walde et al. in Eur. J. Biochem., 1988, 173:401-409, and already reported in the literature in kinetic studies of the inhibition of trypsin with natural and synthetic inhibitors. […]
The enzyme assay on reverse-micelle has been already described in the literature for the enzyme trypsin and was adapted to different enzymes. […] To this solution was added an appropriate volume of substrate CBZ (dissolved in acetonitrile/H2O, 80:20 (v/v) at a concentration of 15 mM) and following further agitation (the solution returned to being transparent), the change in absorbance was measured (Dabs) at 340 nm with a Cary 219 spectrophotometer.
The experimental data obtained are represented graphically in the form of Dixon-plot (described for example in: “Quantitative Problems in Biochemistry”, E A. Dawes, 5th ed. 1972 Baltimore, The Williams and Wilkins Company), in the FIGS. 1, 2 and 3.

SMILES: CCCCOCCOCCOCc1cc2c(cc1CCC)OCO2 [PBO, 5-[[2-(2-Butoxyethoxy)ethoxy]methyl]-6-propyl-1,3-benzodioxole]
- Difference % Treated minus untreated (peptidase, DL-BAPA) ([1]; 4 days after sowing): 4.99%
- Peptidase activity, PBO treated cv. V2i Bt ([1]; 4 days after sowing): 5.21 U/mg of soluble protein × 10^−2
- Difference % Treated minus untreated (peptidase, DL-BAPA) ([1]; 35 days after sowing): −23.54%
- Peptidase activity, PBO treated cv. V2i Bt ([1]; 35 days after sowing): 9.43 U/mg of soluble protein × 10^−2
- Difference % Treated minus untreated (peptidase, DL-BAPA) ([1]; 60 days after sowing): −25.55%
- Peptidase activity, PBO treated cv. V2i Bt ([1]; 60 days after sowing): 13.62 U/mg of soluble protein × 10^−2
- Difference % Treated minus untreated (peptidase, DL-BAPA) ([1]; 85 days after sowing): 18.68%
- Peptidase activity, PBO treated cv. V2i Bt ([1]; 85 days after sowing): 12.42 U/mg of soluble protein × 10^−2
- IC50 ([2]; read-out: IC50 of PBO on ficin, evaluated from Dixon plot): 800 µM
- Ki ([2]; read-out: inhibition constant (KI) of PBO on the enzyme ficin, Dixon plot, substrate CBZ 1.5×10^−4 M and 6×10^−5 M): 450 µM
